# Results reported in PubChem BioAssay (NCI).
#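 96-well plates; 48 h exposure; 5 concentrations. Endpoints by linear interpolation between flanking doses. Not reached: highest tested concentration assigned. At the GI50, growth is halved. The concentration for full growth arrest is given as TGI.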 Where a SMILES comes first, the peptide text is derived from it. The star is where a group is joined. Fmoc = O=C(OCC1c2ccccc2-c2ccccc21)*; OBn = c1ccc(CO*)cc1; tBu = CC(C)(C)*
# Assays:
# Assay in all cases: growth of human tumour cells (NCI), 48 h
# A549 NSCLC = test system: A549 NSCLC
# CCRF-CEM leukemia = test system: CCRF-CEM leukemia
# HOP-92 NSCLC = test system: HOP-92 NSCLC
# MDA-MB-231 breast = test system: MDA-MB-231 breast
# MDA-MB-435 = test system: MDA-MB-435
# OVCAR-3 ovarian = test system: OVCAR-3 ovarian
# SK-MEL-2 melanoma = test system: SK-MEL-2 melanoma
# SN12C renal = test system: SN12C renal
# SNB-19 CNS = test system: SNB-19 CNS
# UACC-62 melanoma = test system: UACC-62 melanoma
Structure (SMILES),TGI (A549 NSCLC),TGI (CCRF-CEM leukemia),TGI (HOP-92 NSCLC),TGI (MDA-MB-231 breast),TGI (MDA-MB-435),TGI (OVCAR-3 ovarian),TGI (SK-MEL-2 melanoma),TGI (SN12C renal),TGI (SNB-19 CNS),TGI (UACC-62 melanoma),GI50 (CCRF-CEM leukemia),GI50 (A549 NSCLC),GI50 (HOP-92 NSCLC),GI50 (MDA-MB-231 breast),GI50 (MDA-MB-435),GI50 (OVCAR-3 ovarian),GI50 (SK-MEL-2 melanoma),GI50 (SN12C renal),GI50 (SNB-19 CNS),GI50 (UACC-62 melanoma)
CC1CC[C@@]2(OC1)OC1C[C@H]3[C@@H]4CC=C5C[C@@H](OC6OC(CO)C(OC7OC(CO)C(O)C(O)C7O)C(O)C6OC6OC(C)C(O)C(O)C6O)CC[C@]5(C)[C@H]4CC[C@]3(C)C1[C@@H]2C (stereo partly specified),2.15 µM,1.48 µM,2.12 µM,0.918 µM,1.29 µM,1.7 µM,3.2 µM,1.52 µM,3.92 µM,0.876 µM,–,–,–,–,–,–,–,–,–,–
CCOc1ccc(Nc2nc(N)nc(N)c2N=O)cc1,> 100 µM,> 100 µM,62.8 µM,> 100 µM,> 100 µM,> 100 µM,> 100 µM,> 100 µM,> 100 µM,> 100 µM,–,–,–,–,–,–,–,–,–,–
O=c1[nH]c2ccccc2c(=O)n1/N=C\c1ccccc1O,> 100 µM,> 100 µM,> 100 µM,> 100 µM,> 100 µM,> 100 µM,> 100 µM,> 100 µM,> 100 µM,> 100 µM,–,–,–,–,–,–,–,–,–,–
COC1CCC(OS(C)(=O)=O)C(C)O1 (stereo unspecified),> 10 µM,> 10 µM,> 10 µM,> 10 µM,> 10 µM,> 10 µM,> 10 µM,> 10 µM,> 10 µM,> 10 µM,–,–,–,–,–,–,–,–,–,–
COC(=O)[C@]1(c2cc3ccccc3[nH]2)CC2CNC1C1OC(C)(C)OC21 (stereo partly specified),> 100 µM,> 100 µM,> 100 µM,> 100 µM,> 100 µM,> 100 µM,> 100 µM,> 100 µM,> 100 µM,> 100 µM,–,–,–,–,–,–,–,–,–,–
CC(C)NC(=O)OCCN=C1c2ccccc2C(Br)C(Br)c2ccccc21 (stereo unspecified),62.4 µM,1.69 µM,17 µM,30.5 µM,27.2 µM,35.6 µM,> 54.1 µM,43.4 µM,43.3 µM,31.1 µM,–,–,–,–,–,–,–,–,–,–
COc1cc2c(cc1OCCN1CCN(CCOc3cc4c(cc3OC)C(=O)N3CCC[C@H]3C=N4)CC1)N=C[C@@H]1CCCN1C2=O,> 100 µM,> 100 µM,4.27 µM,54.5 µM,64.2 µM,66.8 µM,58.7 µM,> 100 µM,> 100 µM,40 µM,4.49 µM,–,–,–,–,–,–,–,–,–
CN(C)c1ccc(/C=C2\N=C(c3ccccc3)N(c3nc4ccc(Sc5ccccc5)cc4[nH]3)C2=O)cc1,> 100 µM,> 100 µM,> 100 µM,> 100 µM,38.6 µM,59.3 µM,60.3 µM,> 100 µM,> 100 µM,82.4 µM,–,–,–,–,–,–,–,–,–,–
CSC1=C(C)C(/C=N/Nc2ccc([N+](=O)[O-])cc2)=C(C)N(c2ccccc2)S1(=O)=O,> 100 µM,> 100 µM,> 100 µM,> 100 µM,> 100 µM,> 100 µM,> 100 µM,> 100 µM,> 100 µM,> 100 µM,–,–,–,–,–,–,–,–,–,–
CC(OC(C)(C)C)C(NC(=O)OCC1c2ccccc2-c2ccccc21)C(=O)NC(Cc1ccccc1)C(=O)OCc1ccccc1 (stereo unspecified) (Fmoc-Thr(tBu)-Phe-OBn; configuration not given here),> 100 µM,> 100 µM,> 100 µM,> 100 µM,> 100 µM,> 100 µM,> 100 µM,> 100 µM,> 100 µM,> 100 µM,–,–,–,–,–,–,–,–,–,–
COc1ccccc1-c1cc(=O)c2cccnc2[nH]1,> 100 µM,> 100 µM,60.2 µM,> 100 µM,60.5 µM,> 100 µM,> 100 µM,> 100 µM,> 100 µM,> 100 µM,–,–,–,–,–,–,–,–,–,–
Cc1c(-c2ccccc2)oc(=O)c2ccccc12,> 100 µM,48.2 µM,38 µM,36.5 µM,34.6 µM,41.8 µM,38.5 µM,38.1 µM,> 100 µM,33 µM,–,–,–,–,–,–,–,–,–,–
Oc1ccccc1/C=N/c1nc(-c2ccccc2)cs1,> 100 µM,65 µM,> 100 µM,> 100 µM,> 100 µM,> 100 µM,> 100 µM,> 100 µM,> 100 µM,> 100 µM,19.7 µM,> 100 µM,8.22 µM,20 µM,29.7 µM,30 µM,> 100 µM,30.9 µM,> 100 µM,34.5 µM
CC1=NN(C(=O)CC(=O)Nc2cccc(C)c2)C(=O)C1N=Nc1ccc(C(=O)O)cc1 (stereo unspecified),> 100 µM,> 100 µM,> 100 µM,> 100 µM,> 100 µM,> 100 µM,> 100 µM,> 100 µM,> 100 µM,> 100 µM,–,–,–,–,–,–,–,–,–,–
O=c1ccc(=O)c2c1c1[nH]c3ccccc3c1c1c(=O)c3ccccc3c(=O)c21,> 10 µM,> 10 µM,> 10 µM,> 10 µM,> 10 µM,> 10 µM,> 10 µM,> 10 µM,> 10 µM,> 10 µM,–,–,–,–,–,–,–,–,–,–
N#Cc1cc2c(n(C3OC(CO)C(O)C(O)C3O)c1=S)CCC2 (stereo unspecified),> 100 µM,> 100 µM,> 100 µM,> 100 µM,> 100 µM,> 100 µM,> 100 µM,> 100 µM,> 100 µM,> 100 µM,–,–,–,–,–,–,–,–,–,–
CCOC(=O)NC(Nc1ccc(C(=O)O)cc1)(C(F)(F)F)C(F)(F)F,> 100 µM,> 100 µM,> 100 µM,> 100 µM,> 100 µM,> 100 µM,> 100 µM,> 100 µM,> 100 µM,> 100 µM,–,–,–,–,–,–,–,–,–,–

Structure (SMILES),TGI (A549 NSCLC),TGI (CCRF-CEM leukemia),TGI (HOP-92 NSCLC),TGI (MDA-MB-231 breast),TGI (MDA-MB-435),TGI (OVCAR-3 ovarian),TGI (SK-MEL-2 melanoma),TGI (SN12C renal),TGI (SNB-19 CNS),TGI (UACC-62 melanoma),GI50 (CCRF-CEM leukemia),GI50 (A549 NSCLC),GI50 (HOP-92 NSCLC),GI50 (MDA-MB-231 breast),GI50 (MDA-MB-435),GI50 (OVCAR-3 ovarian),GI50 (SK-MEL-2 melanoma),GI50 (SN12C renal),GI50 (SNB-19 CNS),GI50 (UACC-62 melanoma)
CC[P+](c1ccccc1)(N(C)C)N(C)C,> 100 µM,> 100 µM,> 100 µM,> 100 µM,> 100 µM,> 100 µM,> 100 µM,> 100 µM,> 100 µM,> 100 µM,–,–,–,–,–,–,–,–,–,–
CCCCCCCCCCCCCCCCOC[C@H](COC(c1ccccc1)(c1ccccc1)c1ccccc1)O[P+](=S)OC (stereo partly specified),> 100 µM,> 100 µM,> 100 µM,> 100 µM,> 100 µM,> 100 µM,> 100 µM,> 100 µM,> 100 µM,> 100 µM,–,–,–,–,–,–,–,–,–,–
CCOC(=O)CC1(N)CC2c3ccccc3OC(=O)C2C(=O)N1 (stereo unspecified),> 100 µM,> 100 µM,> 100 µM,> 100 µM,> 100 µM,> 100 µM,> 100 µM,> 100 µM,> 100 µM,> 100 µM,–,–,–,–,–,–,–,–,–,–
C=C(CCC(=O)N(CCc1c[nH]c2ccccc12)C(=O)c1ccccc1CSCC)C(=O)OC,> 100 µM,> 100 µM,> 100 µM,> 100 µM,> 100 µM,> 100 µM,> 100 µM,> 100 µM,> 100 µM,> 100 µM,–,–,–,–,–,–,–,–,–,–
CN(CC(=O)O)c1ncc2c(n1)-c1ccccc1CC2,> 100 µM,> 100 µM,> 100 µM,> 100 µM,> 100 µM,> 100 µM,> 100 µM,> 100 µM,> 100 µM,> 100 µM,–,–,–,–,–,–,–,–,–,–
Nc1ncnc2c1ncn2CCCNO,> 100 µM,> 100 µM,> 100 µM,> 100 µM,> 100 µM,> 100 µM,> 100 µM,> 100 µM,> 100 µM,> 100 µM,–,–,–,–,–,–,–,–,–,–
Cc1c(C)c2c(c(N)c1C#N)C(=O)N(NC(=S)Nc1ccccc1)C2=O,> 100 µM,> 100 µM,> 100 µM,> 100 µM,> 100 µM,> 100 µM,> 100 µM,> 100 µM,> 100 µM,> 100 µM,–,–,–,–,–,–,–,–,–,–
C=C(C)C1CCC2(C)C1CCC1(C)C2CCC2C3(C)C4OC(OC4=O)C(C)(C)C3CCC21C (stereo unspecified),> 100 µM,> 100 µM,> 100 µM,> 100 µM,> 100 µM,> 100 µM,> 100 µM,> 100 µM,> 100 µM,> 100 µM,–,–,–,–,–,–,–,–,–,–
Fc1nc(Sc2ncnc3nc[nH]c23)nc(-c2c3ccccc3c3sc4ccccc4n23)n1,> 100 µM,> 100 µM,> 100 µM,> 100 µM,> 100 µM,> 100 µM,> 100 µM,> 100 µM,> 100 µM,> 100 µM,–,–,–,–,–,–,–,–,–,–
Nc1ccc2c3c1cccc3c(=O)n1c3ccc(Cc4ccc5c(c4)nc4c6ccc(N)c7cccc(c(=O)n54)c76)cc3nc21,> 100 µM,> 100 µM,> 100 µM,> 100 µM,> 100 µM,> 100 µM,> 100 µM,> 100 µM,> 100 µM,> 100 µM,–,–,–,–,–,–,–,–,–,–
COc1ccc(Nc2nc(N)c(C(=O)c3ccco3)s2)cc1,> 100 µM,> 56.1 µM,> 100 µM,> 100 µM,16.9 µM,> 70.6 µM,> 83.9 µM,> 100 µM,> 100 µM,> 100 µM,–,–,–,–,–,–,–,–,–,–
CC1(c2ccc(Cl)cc2)c2ccccc2C(=O)N1CCCN1C(=O)c2ccccc2C1=O (stereo unspecified),> 100 µM,> 100 µM,> 100 µM,> 100 µM,> 100 µM,99.7 µM,46.3 µM,> 100 µM,78.5 µM,> 100 µM,–,–,–,–,–,–,–,–,–,–
COc1cc2c(cc1OC)C(C1CC1)ON(C)CC2 (stereo unspecified),> 100 µM,> 100 µM,> 100 µM,> 100 µM,> 100 µM,> 100 µM,> 100 µM,> 100 µM,> 100 µM,> 100 µM,–,–,–,–,–,–,–,–,–,–
CCOC(=O)C(NC(=O)c1ccccc1)(Nc1ccc(S(=O)(=O)Nc2cc(C)on2)cc1)C(F)(F)F (stereo unspecified),> 100 µM,> 100 µM,> 100 µM,> 100 µM,> 100 µM,> 100 µM,> 100 µM,> 100 µM,> 100 µM,> 100 µM,–,–,–,–,–,–,–,–,–,–
Cc1cc(S(=O)(=O)NC2=NCc3c(F)cccc3N2)c(S)cc1Cl,> 100 µM,> 100 µM,> 100 µM,> 100 µM,> 100 µM,> 100 µM,> 100 µM,> 100 µM,> 100 µM,> 100 µM,–,–,–,–,–,–,–,–,–,–
CCCCCCCC(=O)OC[n+]1cccc(-c2c(COC(=O)NC(C)C)c(COC(=O)NC(C)C)c3n2CCC3)c1,> 100 µM,> 84 µM,> 100 µM,> 100 µM,> 100 µM,> 100 µM,> 100 µM,> 100 µM,> 100 µM,> 100 µM,–,–,–,–,–,–,–,–,–,–
CCOC1OC(C)(C=C(C#N)C#N)CCC1C (stereo unspecified),> 100 µM,> 86 µM,> 100 µM,> 100 µM,> 100 µM,> 71.6 µM,> 100 µM,> 86.6 µM,> 100 µM,> 100 µM,–,–,–,–,–,–,–,–,–,–
